The values below come from publication PMC5270475, “Structural Characterization and Ligand/Inhibitor Identification Provide Functional Insights into the Mycobacterium tuberculosis Cytochrome P450 CYP126A1” (The Journal of Biological Chemistry, 2016).

The experiment deals with T1, CYP126A1 (Mycobacterium tuberculosis, UniProt P9WPN9).
T1 construct: gene cyp126
T1 sequence (P9WPN9 whole entry): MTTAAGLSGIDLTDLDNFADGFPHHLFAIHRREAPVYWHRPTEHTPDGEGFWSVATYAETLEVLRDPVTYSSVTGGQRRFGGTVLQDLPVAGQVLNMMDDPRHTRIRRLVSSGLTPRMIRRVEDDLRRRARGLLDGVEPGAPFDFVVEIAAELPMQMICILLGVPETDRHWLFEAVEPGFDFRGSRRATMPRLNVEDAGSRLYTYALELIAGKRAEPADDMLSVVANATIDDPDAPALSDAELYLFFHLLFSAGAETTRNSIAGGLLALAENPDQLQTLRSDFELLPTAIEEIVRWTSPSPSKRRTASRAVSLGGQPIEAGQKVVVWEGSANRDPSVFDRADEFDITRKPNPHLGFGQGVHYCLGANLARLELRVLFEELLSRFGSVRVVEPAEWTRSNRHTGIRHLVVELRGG
Nature of the experiment: UV-visible absorbance titration (heme Soret shift). The experiment is classed as binding. The settings on record: read-out: Kd.
On to `Cc1cccc(CSc2ncc(Cl)c(C(=O)Nc3nnc(C)s3)n2)c1` [compound 5, Compound 5], for which the Kd is 6.15 ± 0.31 µM.

For the compound `COc1ccc(-c2noc(CN(C(=O)Cc3ccc([N+](=O)[O-])cc3)C(C)C)n2)cc1` [compound 1, N-isopropyl-N-((3-(4-methoxyphenyl)-1,2,4-oxadiazol-5-yl)methyl)-2-(4-nitrophenyl)acetamide], the dissociation constant (Kd) worked out at 18.3 ± 1.3 µM.

On to `O=C1CC(N2CCN(Cc3ccc4c(c3)OCO4)CC2)C(=O)N1Cc1ccc(Cl)cc1` (stereo not drawn) [compound 4, 3-(4-(benzo[d][1,3]dioxol-5-ylmethyl)piperazin-1-yl)-1-(4-chlorobenzyl)pyrrolidine-2,5-dione], for which the Kd is 65.2 ± 6.6 µM.

Regarding `O=C(Nc1nc2ccc(F)cc2s1)c1nc(SCc2ccccc2F)ncc1Cl` [compound 6, Compound 6], the dissociation constant (Kd) was found to be 25.3 ± 0.5 µM.

On to `Cc1ccc(NC(=O)c2cccc3nc4ccccc4nc23)cc1` [compound 3, Compound 3], for which the dissociation constant (Kd) worked out at 56.1 ± 2.2 µM.

As to `O=C1CCCC2Oc3c(cc(NS(=O)(=O)c4ccc([N+](=O)[O-])cc4)c4ccccc34)C12` (stereo not drawn) [compound 2, Compound 2], the equilibrium dissociation constant (Kd) was 2.85 ± 0.15 µM.
